The values that follow come from PubChem BioAssay AID344 (DTP/NCI, 2004).

Several values for one entry are separate records, joined by “and”; a condition that tells them apart may be missing. Equal entries are not always repeated. Inconclusive results and toxic doses are left out.

This assay relates to mice, LPC-1 plasma cell tumor ip, median survival T/C. Kind of assay: NCI In Vivo Anticancer Drug Screen. Data for tumor model Lieberman Plasma Cell No. 1 (LPC-1) (intraperitoneal) in unknown mice. The following applies: endpoint: median survival time, higher = longer survival. The protocol:
The antitumor activity of compounds was measured in mice bearing transplantable tumors. Survival or tumor size were measured and the results are expressed as the measurement made in the treated group (T) divided by the measurement made in the vehicle treated control group (C). The tumor model used in this assay is Lieberman Plasma Cell No. 1 (LPC-1) (intraperitoneal) in unknown mice

Where [1] appears, read: dose: 2.0 mg/kg/injection, schedule: Q01DX028 (sc), vehicle: saline.
[2] abbreviates: dose: 4.0 mg/kg/injection, schedule: Q01DX028 (sc), vehicle: saline.
The mark [3] stands for this setting: dose: 1.0 mg/kg/injection, schedule: Q01DX028 (sc), vehicle: saline.

For the compound `O=P1(N(CCCl)CCCl)NCCCO1` (stereo not given), the T/C under setting [1] was 86 % of control; the T/C (dose: 3.12 mg/kg/injection, schedule: Q01DX028 (sc), vehicle: saline) was 109 % of control; the T/C under setting [2] was 100 % of control; the T/C (dose: 6.0 mg/kg/injection, schedule: Q01DX028 (sc), vehicle: saline) is 114 % of control; the T/C (dose: 8.0 mg/kg/injection, schedule: Q01DX028 (sc), vehicle: saline) was 161 % of control; the T/C (dose: 8.4 mg/kg/injection, schedule: Q01DX028 (sc), vehicle: saline) was 182 % of control and 184 % of control and 213 % of control. Besides, the T/C is 194 % of control (dose: 10.0 mg/kg/injection, schedule: Q01DX Z (sc), vehicle: saline); 243 % of control (dose: 12.0 mg/kg/injection, schedule: Q01DX028 (sc), vehicle: saline); 190 % of control (dose: 12.5 mg/kg/injection, schedule: Q01DX011 (sc), vehicle: saline); 229 % of control (dose: 12.5 mg/kg/injection, schedule: Q01DX024 (sc), vehicle: saline); 190 % of control (dose: 14.0 mg/kg/injection, schedule: Q01DX Z (sc), vehicle: saline); 150 % of control (dose: 15.62 mg/kg/injection, schedule: Q01DX010 (sc), vehicle: saline). The T/C is, setting by setting: (dose: 16.0 mg/kg/injection, schedule: Q01DX028 (sc), vehicle: saline) 167 % of control and 212 % of control; (dose: 20.0 mg/kg/injection, schedule: Q01DX Z (sc), vehicle: saline) 155 % of control; (dose: 23.0 mg/kg/injection, schedule: Q01DX Z (sc), vehicle: saline) 166 % of control; (dose: 24.0 mg/kg/injection, schedule: Q01DX028 (sc), vehicle: saline) 114 % of control; (dose: 25.0 mg/kg/injection, schedule: Q01DX011 (sc), vehicle: saline) 190 % of control; (dose: 25.0 mg/kg/injection, schedule: Q01DX015 (sc), vehicle: saline) 91 % of control. The T/C by setting is: (dose: 25.0 mg/kg/injection, schedule: Q01DX024 (sc), vehicle: saline) 244 % of control; (dose: 31.25 mg/kg/injection, schedule: Q01DX010 (sc), vehicle: saline) 186 % of control; (dose: 32.0 mg/kg/injection, schedule: Q01DX028 (sc), vehicle: saline) 200 % of control and 208 % of control; (dose: 39.0 mg/kg/injection, schedule: Q01DX009 (sc), vehicle: saline) 154 % of control; (dose: 39.0 mg/kg/injection, schedule: Q01DX Z (sc), vehicle: saline) 150 % of control; (dose: 48.0 mg/kg/injection, schedule: Q01DX028 (sc), vehicle: saline) 100 % of control. Besides, the T/C was 259 % of control and 88 % of control (dose: 50.0 mg/kg/injection, schedule: Q01DX009 (ip), vehicle: saline); 190 % of control (dose: 50.0 mg/kg/injection, schedule: Q01DX011 (sc), vehicle: saline); 211 % of control (dose: 50.0 mg/kg/injection, schedule: Q01DX015 (sc), vehicle: saline); 223 % of control (dose: 50.0 mg/kg/injection, schedule: Q01DX024 (sc), vehicle: saline); 168 % of control (dose: 64.0 mg/kg/injection, schedule: Q01DX028 (sc), vehicle: saline); 197 % of control (dose: 65.0 mg/kg/injection, schedule: Q07DX004 (sc), vehicle: saline). In addition, the T/C runs as follows: (dose: 125.0 mg/kg/injection, schedule: Q01DX010 (sc), vehicle: saline) 100 % of control; (dose: 128.0 mg/kg/injection, schedule: Q01DX028 (sc), vehicle: saline) 97 % of control; (dose: 180.0 mg/kg/injection, schedule: Q01DX028 (sc), vehicle: saline) 97 % of control.

In the case of `CS(=O)(=O)OCCN(CCOS(C)(=O)=O)c1ccc(C=Nc2ccc3oc(=O)ccc3c2)cc1`, the T/C runs as follows: (dose: 3.5 mg/kg/injection, schedule: Q01DX Z (sc), vehicle: carboxymethylcellulose (CMC)) 166 % of control; (dose: 3.8 mg/kg/injection, schedule: Q01DX028 (sc), vehicle: steriod suspending solution) 165 % of control; (dose: 7.0 mg/kg/injection, schedule: Q01DX Z (sc), vehicle: carboxymethylcellulose (CMC)) 177 % of control; (dose: 7.5 mg/kg/injection, schedule: Q01DX028 (sc), vehicle: steriod suspending solution) 188 % of control; (dose: 14.0 mg/kg/injection, schedule: Q01DX Z (sc), vehicle: carboxymethylcellulose (CMC)) 216 % of control; (dose: 15.0 mg/kg/injection, schedule: Q01DX028 (sc), vehicle: steriod suspending solution) 250 % of control. For the same compound, the T/C (dose: 28.0 mg/kg/injection, schedule: Q01DX Z (sc), vehicle: carboxymethylcellulose (CMC)) was 161 % of control and the T/C (dose: 30.0 mg/kg/injection, schedule: Q01DX028 (sc), vehicle: steriod suspending solution) was 230 % of control.

In the case of `Cc1cc(N(CCCl)CCCl)ccc1C=Nc1ccccc1-c1ccccc1`, the T/C runs as follows: (dose: 23.0 mg/kg/injection, schedule: Q01DX015 (sc), vehicle: carboxymethylcellulose (CMC)) 92 % of control; (dose: 180.0 mg/kg/injection, schedule: Q01DX015 (sc), vehicle: carboxymethylcellulose (CMC)) 102 % of control.

Take `CCOC(N)=O`: the T/C by setting is: (dose: 128.0 mg/kg/injection, schedule: Q01DX028 (sc), vehicle: other) 98 % of control; (dose: 400.0 mg/kg/injection, schedule: Q01DX028 (sc), vehicle: saline) 210 % of control; (dose: 512.0 mg/kg/injection, schedule: Q01DX028 (sc), vehicle: other) 175 % of control.

`COC12C(COC(N)=O)C3=C(C(=O)C(C)=C(N)C3=O)N1CC1C2N1C` (stereo not given): the T/C (dose: 0.7 mg/kg/injection, schedule: Q01DX028 (sc), vehicle: saline) was 124 % of control; the T/C under setting [1] was 178 % of control; the T/C (dose: 3.0 mg/kg/injection, schedule: Q01DX028 (sc), vehicle: saline) was 156 % of control.

With `CO[C@@]12[C@H](COC(N)=O)C3=C(C(=O)C(C)=C(N)C3=O)N1C[C@@H]1N[C@@H]12`, the T/C is 191 % of control (dose: 0.25 mg/kg/injection, schedule: Q01DX028 (sc), vehicle: saline); 161 % of control (dose: 0.5 mg/kg/injection, schedule: Q01DX028 (sc), vehicle: saline); 111 % of control under setting [3]; 100 % of control under setting [1].

With `CN(Cc1cnc2nc(N)nc(N)c2n1)c1ccc(C(=O)N[C@@H](CCC(=O)O)C(=O)O)cc1`, the T/C was 105 % of control (dose: 0.12 mg/kg/injection, schedule: Q01DX028 (sc), vehicle: other) and 98 % of control (dose: 1.0 mg/kg/injection, schedule: Q01DX028 (sc), vehicle: other).

For the compound `NC(=O)c1ccc(N)nc1`, the T/C was 100 % of control (dose: 0.16 mg/kg/injection, schedule: Q01DX028 (sc), vehicle: water); 97 % of control (dose: 0.32 mg/kg/injection, schedule: Q01DX028 (sc), vehicle: water); 95 % of control (dose: 0.65 mg/kg/injection, schedule: Q01DX028 (sc), vehicle: water); 97 % of control (dose: 1.25 mg/kg/injection, schedule: Q01DX028 (sc), vehicle: water); 100 % of control (dose: 2.5 mg/kg/injection, schedule: Q01DX028 (sc), vehicle: water); 107 % of control (dose: 5.0 mg/kg/injection, schedule: Q01DX028 (sc), vehicle: water).

`CC[C@H]1CN2CCc3cc(OC)c(OC)cc3[C@@H]2C[C@@H]1C[C@H]1NCCc2cc(OC)c(OC)cc21`: the T/C is 106 % of control under setting [3], 106 % of control under setting [1] and 94 % of control under setting [2].

For the compound `O=NN(CCCl)C(=O)NC1CCCCC1`, the T/C is 111 % of control (dose: 33.0 mg/kg/injection, schedule: Q01DX028 (sc), vehicle: carboxymethylcellulose (CMC)) and 102 % of control (dose: 75.0 mg/kg/injection, schedule: Q01DX028 (sc), vehicle: carboxymethylcellulose (CMC)).

As to `CC(=O)O[C@]1(C(C)=O)CC[C@H]2[C@@H]3C[C@H](C)C4=CC(=O)C=C[C@]4(C)[C@@]3(F)[C@@H](O)C[C@@]21C`, the T/C by setting is: (dose: 25.0 mg/kg/injection, schedule: Q01DX028 (sc), vehicle: steriod suspending solution) 100 % of control; (dose: 50.0 mg/kg/injection, schedule: Q01DX028 (sc), vehicle: steriod suspending solution) 97 % of control; (dose: 75.0 mg/kg/injection, schedule: Q01DX028 (sc), vehicle: steriod suspending solution) 91 % of control; (dose: 100.0 mg/kg/injection, schedule: Q01DX028 (sc), vehicle: steriod suspending solution) 97 % of control.
